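Step 1: Grow cells in 96-well plates. Step 2: Expose to compound for 48 hours at 5 concentrations. Step 3: Interpolate endpoints linearly; if unreached, use highest concentration. GI50 is the concentration that inhibits growth by half. At the TGI there is no net growth.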
How the values were obtained:
Experiment in all cases: growth of human tumour cells (NCI), 48 h
NCI/ADR-RES ovarian = test system: NCI/ADR-RES ovarian
BT-549 breast = test system: BT-549 breast
HS 578T breast = test system: HS 578T breast
M14 melanoma = test system: M14 melanoma
RPMI-8226 leukemia = test system: RPMI-8226 leukemia
RXF 393 renal = test system: RXF 393 renal
KM12 colon = test system: KM12 colon
SF-295 CNS = test system: SF-295 CNS
NCI-H522 lung = test system: NCI-H522 lung
786-0 renal = test system: 786-0 renal

Structure (SMILES)	GI50 (NCI/ADR-RES ovarian) [µM]	TGI (NCI/ADR-RES ovarian) [µM]	GI50 (BT-549 breast) [µM]	TGI (BT-549 breast) [µM]	GI50 (HS 578T breast) [µM]	TGI (HS 578T breast) [µM]	GI50 (M14 melanoma) [µM]	TGI (M14 melanoma) [µM]	GI50 (RPMI-8226 leukemia) [µM]	TGI (RPMI-8226 leukemia) [µM]	GI50 (RXF 393 renal) [µM]	TGI (RXF 393 renal) [µM]	GI50 (KM12 colon) [µM]	TGI (KM12 colon) [µM]	GI50 (SF-295 CNS) [µM]	TGI (SF-295 CNS) [µM]	GI50 (NCI-H522 lung) [µM]	TGI (NCI-H522 lung) [µM]	GI50 (786-0 renal) [µM]	TGI (786-0 renal) [µM]
Cn1cc(C2=C(c3cn(CCCN/C(N)=N\[N+](=O)[O-])c4ccccc34)C(=O)NC2=O)c2ccccc21	> 25	> 25	2.1	9.38	1.42	14.5	4.8	12.3	5.64	14.8	2	7.3	2.77	> 18.1	3.74	> 23.6	2.44	9.99	5.07	> 25
COc1ccc(/C=C\c2cc(OC)c(OC(C)=O)c(OC)c2)cc1	–	–	–	–	–	–	–	92.2	–	85.7	–	–	–	61.2	–	–	–	39.7	–	> 100
COC(=O)/C=C/c1cc(OC)c2c(c1)[C@@H](C(=O)OC)[C@H](c1ccc(OC)c(OC)c1)O2	0.768	> 100	4.88	> 100	1.7	> 100	0.816	> 100	–	–	–	–	0.703	> 100	0.715	> 100	1.44	> 100	4.89	> 100
O=c1c2ccc(Br)cc2nc(-c2ccccc2)n1NC1OC(CO)C(O)C(O)C1O (stereo unspecified)	–	–	–	–	–	–	–	> 100	–	> 100	–	–	–	> 100	–	> 100	–	> 100	–	> 100
O=C(NCCOCCO)c1ccc(O)cc1	–	–	–	–	–	–	–	> 100	–	> 100	–	> 100	–	–	–	–	–	> 100	–	> 100
Cc1cc2c(C=O)[nH]nc2c(C#N)c1C	–	–	–	–	–	–	–	> 100	–	> 100	–	–	–	> 100	–	> 100	–	22.7	–	> 100
COc1ccc(S(=O)(=O)Nc2c(/C=C\c3cc(OC)c(OC)c(OC)c3)ccc(OC)c2O)cc1OC	1.58	> 100	0.256	–	0.251	> 100	0.205	> 100	0.413	> 61	–	–	0.091	> 100	0.242	> 100	0.0776	> 100	0.42	> 100
CCC1(O)CC(c2ccccc2)N(C)C(c2ccccc2)C1 (stereo unspecified)	–	–	–	–	–	–	–	> 100	–	–	–	> 100	–	> 100	–	> 100	–	> 100	–	> 100
CCOC(=O)/C(C#N)=C/c1[nH]c(C)c(C)c1C	–	–	–	–	–	–	–	> 100	–	> 100	–	> 100	–	> 100	–	> 100	–	> 100	–	> 100
C=C(C=O)[C@@H]1CC=C(C=O)CC1	3.89	> 100	3.26	> 30.5	3.36	42.4	–	–	2.14	6.63	3.72	> 100	4.21	27.8	12	97.3	37.8	> 100	16.8	80
Cc1cccc(C)c1NC(=O)/C(CC(=O)CC(c1ccccc1)c1c(O)c2ccccc2oc1=O)=N/O (stereo unspecified)	–	> 100	–	> 100	–	> 100	–	> 100	–	–	–	> 100	–	> 100	–	> 100	–	> 100	–	> 100
CCN(CC)[C@@H]1c2cc3c(cc2C(c2cc(OC)c(O)c(OC)c2)C2C(=O)CO[C@@H]21)OCO3 (stereo partly specified)	–	–	–	–	–	–	–	> 100	–	> 100	–	> 100	–	> 100	–	> 100	–	> 100	–	> 100
CC(=O)c1ccc(-c2ccc(C(C)=O)s2)s1	–	–	–	–	–	–	–	> 100	–	> 100	–	> 100	–	> 100	–	> 100	–	> 100	–	> 100
C[C@]12CC[C@H](O)CC1CCC[C@@H]2O (stereo partly specified)	–	–	–	–	–	–	–	> 100	–	> 100	–	> 100	–	> 100	–	> 100	–	> 100	–	> 100
C=C1[C@@H]2CCC(C)(C)[C@H]1CCC(=O)[C@@H]2C(=O)OC	–	–	–	–	–	–	–	> 100	–	> 100	–	> 100	–	–	–	> 100	–	–	–	> 100
OCC1C2C=CC(O2)[C@H]1CO (stereo partly specified)	–	–	–	–	–	–	–	> 100	–	> 100	–	> 100	–	> 100	–	> 100	–	> 100	–	> 100
CC12CCC(C)(c3cc(O)c(O)cc31)c1cc(O)c(O)cc12	–	–	–	–	–	–	–	36	–	30	–	31.3	–	32.7	–	46.8	–	6.38	–	27.9
COC(=O)C1=CCS(=O)(=O)C1	–	–	–	–	–	–	–	> 100	–	> 100	–	> 100	–	> 100	–	> 100	–	–	–	> 100
COc1cccc(-c2nn(C)c3sc(C(=O)NCCN4CCN(c5ccccc5F)CC4)cc23)c1	13.8	> 100	> 100	> 100	26.2	> 100	–	–	6.51	> 100	3.17	> 100	10.1	> 100	4.85	29	18.8	> 100	5.24	25.1
NC1=C(O)/C(=N/NS(=O)(=O)c2ccccc2)C(c2cccc(Cl)c2)O1 (stereo unspecified)	–	–	–	> 100	–	95.1	–	67.6	–	> 47.4	–	29.6	–	> 100	–	> 100	–	26.4	–	68.5
CC(=O)Oc1cc(OC(C)=O)c(OC(C)=O)c2c1CC1C(=O)C3(CCc4ccccc43)C(=O)C1C2 (stereo unspecified)	–	–	–	–	–	–	–	> 100	–	13.1	–	28.6	–	–	–	17.3	–	–	–	26.4
NCCCSCC(=O)O	–	–	–	–	–	–	–	–	–	> 100	–	> 100	–	> 100	–	> 100	–	> 100	–	> 100

Structure (SMILES)	GI50 (NCI/ADR-RES ovarian) [µM]	TGI (NCI/ADR-RES ovarian) [µM]	GI50 (BT-549 breast) [µM]	TGI (BT-549 breast) [µM]	GI50 (HS 578T breast) [µM]	TGI (HS 578T breast) [µM]	GI50 (M14 melanoma) [µM]	TGI (M14 melanoma) [µM]	GI50 (RPMI-8226 leukemia) [µM]	TGI (RPMI-8226 leukemia) [µM]	GI50 (RXF 393 renal) [µM]	TGI (RXF 393 renal) [µM]	GI50 (KM12 colon) [µM]	TGI (KM12 colon) [µM]	GI50 (SF-295 CNS) [µM]	TGI (SF-295 CNS) [µM]	GI50 (NCI-H522 lung) [µM]	TGI (NCI-H522 lung) [µM]	GI50 (786-0 renal) [µM]	TGI (786-0 renal) [µM]
COc1ccc(/C=N/C2=C(C#N)C(c3ccccc3)c3ccc4ccccc4c3O2)cc1 (stereo unspecified)	0.262	–	0.793	> 100	0.279	> 100	0.336	> 100	0.383	> 38	–	–	0.397	> 100	0.314	> 100	0.128	5.5	0.492	> 100
OC(c1cc2c(Cl)cc(Cl)cc2c2cc(C(F)(F)F)ccc12)C1CCCCN1 (stereo unspecified)	1.77	3.64	–	–	1.59	3.72	2.04	4.12	2.3	4.95	1.61	3.12	1.89	3.46	–	–	1.55	3.22	1.66	3.5
CC(=O)NC1C(OCc2ccccc2)OC(COC(=O)CCCCCCCCCCNC(=O)CCNc2ccc([N+](=O)[O-])c3[nH]c4ccc(O)cc4c(=O)c23)C(O)C1OC(C)C(=O)N[C@H](C(=O)N[C@H](CCC(=O)O)C(N)=O)C(C)C (stereo partly specified)	–	–	–	–	–	–	–	> 100	–	46.6	–	> 100	–	> 100	–	> 100	–	40.4	–	> 100
COc1cc(/C=C/C(=O)c2ccc(SC)cc2)cc(OC)c1OC	4.68	26.4	10.1	24.6	12.3	37	10.5	22.4	3.9	> 100	2.62	7.01	13.3	29.1	–	–	8.82	23.8	6.43	20.4
CCn1cc(C(=O)O)c(=O)c2cc(F)c(N3CCNCC3)nc21	–	–	–	–	–	–	–	> 100	–	> 100	–	–	–	> 100	–	> 100	–	> 100	–	> 100
O=C(c1ccccc1)C(c1ccccc1)C1(O)C(=O)Nc2ccc(Br)cc21 (stereo unspecified)	–	–	–	–	–	–	–	> 100	–	98.9	–	> 100	–	> 100	–	> 100	–	59.6	–	> 100
COc1ccc2c(C(=O)NCCCCCC(=O)O)cc3cc4c(cc3c2c1)OCO4	> 100	> 100	75.5	> 100	> 100	> 100	> 100	> 100	> 100	> 100	> 100	> 100	> 100	> 100	> 100	> 100	–	–	> 100	> 100
Cc1nc(N(C)C)nc(-c2cccc(-c3ccn(CCN(C)C)n3)c2)c1C	> 20	> 20	> 20	> 20	12.7	> 20	> 20	> 20	> 20	> 20	> 20	> 20	> 20	> 20	–	–	> 20	> 20	> 20	> 20
Cc1ccc(Sc2cc([N+](=O)[O-])cc(Sc3ccc(C)cc3)c2Sc2ccc(C)cc2)cc1	–	–	–	–	–	–	–	> 100	–	> 100	–	> 100	–	> 100	–	> 100	–	–	–	> 100
O=C1CCC(=O)C12CCc1ccccc12	–	–	–	–	–	–	–	> 100	–	–	–	> 100	–	–	–	> 100	–	–	–	> 100
OC1OC2COC(c3ccccc3)OC2C(O)C1O (stereo unspecified)	–	–	–	–	–	–	–	> 100	–	> 100	–	–	–	> 100	–	> 100	–	> 100	–	> 100
O=C1C2Cc3ccccc3CN2C(=O)N1CCN1CCOCC1 (stereo unspecified)	–	–	–	–	–	–	–	> 100	–	> 100	–	–	–	> 100	–	> 100	–	> 100	–	> 100
Nc1c(-c2ccc(-c3c(N)[n+]([O-])c4ccccc4[n+]3[O-])cc2)[n+]([O-])c2ccccc2[n+]1[O-]	–	–	–	–	–	–	–	35.1	–	> 100	–	–	–	23.6	–	36.7	–	3.65	–	26.9
COc1ccc2c(c1)[n+](=O)c(C(=O)C/C(=N\NC(=O)C[N+](C)(C)C)C(=O)Nc1cc(Cl)ccc1Cl)c(C)n2O	–	–	–	–	–	–	–	> 100	–	> 100	–	> 100	–	> 100	–	> 100	–	> 100	–	> 100
Cc1cc(=O)[nH]c2c1C(=O)C(=O)C=C2	18.4	40.7	57.8	> 100	40.4	> 100	23.8	60.9	39	> 100	–	–	–	–	24.1	52.8	> 100	> 100	18.7	36.3
O=C1OC(/C=C/c2ccccc2)C(=O)C1=O (stereo unspecified)	–	–	–	–	–	–	–	> 100	–	> 100	–	> 100	–	> 100	–	> 100	–	> 100	–	> 100
CCCCCCCCCCCCCCCc1nc(SCC(=O)O)n[nH]1	–	–	–	–	–	–	–	42.4	–	> 100	–	> 100	–	> 100	–	> 100	–	> 100	–	42.1
O=c1cc(/C=C/c2ccccc2)c2ccc(O/C(=C\c3ccccc3)c3nc4ccccc4c(=O)o3)cc2o1	–	–	–	–	–	–	–	50.1	–	60.3	–	–	–	> 100	–	> 100	–	–	–	> 100
Cn1c(=O)c2nc3sc4ccccc4c(=N)n3c2n(C)c1=O	–	–	–	–	–	–	–	–	–	–	–	> 100	–	> 100	–	> 100	–	> 100	–	> 100
O=C1OC(=O)C2C1C1(c3ccccc3)OC2(c2ccccc2)c2c(Br)c(Br)c(Br)c(Br)c21 (stereo unspecified)	–	–	–	–	–	–	–	> 100	–	> 100	–	> 100	–	> 100	–	> 100	–	> 100	–	> 100
Fc1cccc(C2SCc3nc4ccccc4n32)c1 (stereo unspecified)	–	–	–	–	–	–	–	–	–	> 100	–	> 10	–	> 100	–	> 100	–	96.1	–	> 100
CC1(C)OC(=O)C(c2ccsc2)C(=O)O1	–	–	–	–	–	–	–	> 100	–	> 100	–	> 100	–	> 100	–	> 100	–	> 100	–	> 100

Source: PubChem BioAssay (NCI)
